Measurements taken from patent publication US20250313563A1, “GLYCOGEN SYNTHASE KINASE 3 INHIBITORS AND USES THEREOF” (The Broad Institute, Inc., priority 2022, published 2025).
Where two headings read alike, the source gives them in different places.

Experiments:
[1] = molecular target: GSK3α (GST-full length GSK3α) (Homo sapiens (Human), UniProt P49840); experiment: GSK3α TR-FRET kinase assay; type: biochemical
Summary of the method: (§1)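 IC50s came from the normalized 665/615 TR-FRET ratio after Tb-anti-pSer641 antibody and streptavidin-d2 detection of phosphorylated biotin-glycogen synthase peptide (200 nM). ATP was 4 μM for GSK3α, 2 μM for GSK3b, or 1 mM; 1 nM enzyme, 100 min, ambient, pH 7.5, after 30-min compound preincubation.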

[2] = molecular target: GSK3b (GST-full length GSK3b) (Homo sapiens (Human), UniProt P49841); experiment: GSK3b TR-FRET kinase assay; type: biochemical
Sequence of GSK3b (GST-full length GSK3b) (P49841 whole entry): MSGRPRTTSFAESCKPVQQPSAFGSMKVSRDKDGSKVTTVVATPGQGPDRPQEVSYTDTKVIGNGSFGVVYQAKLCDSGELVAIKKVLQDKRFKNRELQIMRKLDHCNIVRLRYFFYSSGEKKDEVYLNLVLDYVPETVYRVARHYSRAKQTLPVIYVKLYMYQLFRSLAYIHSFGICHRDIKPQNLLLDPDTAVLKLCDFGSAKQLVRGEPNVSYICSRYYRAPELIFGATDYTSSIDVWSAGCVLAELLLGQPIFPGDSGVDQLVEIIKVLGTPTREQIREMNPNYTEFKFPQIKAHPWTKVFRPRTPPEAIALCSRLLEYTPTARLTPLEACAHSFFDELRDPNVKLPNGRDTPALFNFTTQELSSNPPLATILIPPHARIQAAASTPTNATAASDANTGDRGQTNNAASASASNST
Summary of the method: as §1

[3] = 1 nM GSK3α, 4 μM ATP, 30 minute preincubation, Table 16, read-out: GSK3-A TR-FRET BIOCHEMICAL (TR-FRET)
[4] = 1 nM GSK3b, 2 μM ATP, 30 minute preincubation, Table 16, read-out: GSK3-B TR-FRET BIOCHEMICAL (TR-FRET)
[5] = read-out: GSK3-A (TR-FRET 1 mM ATP), GMean, IC50, 1 mM ATP, geometric mean
[6] = read-out: GSK3-B (TR-FRET 1 mM ATP), GMean, IC50, 1 mM ATP, geometric mean
[7] = 1 nM GSK3α, 4 μM ATP, 30 minute preincubation, read-out: GSK3-A TR-FRET BIOCHEMICAL (TR-FRET), IC50
[8] = 1 nM GSK3b, 2 μM ATP, 30 minute preincubation, read-out: GSK3-B TR-FRET BIOCHEMICAL (TR-FRET), IC50
[9] = GSK3-A (TR-FRET 1 mM ATP), GMean, IC50, 1 mM ATP, geometric mean
[10] = GSK3-B (TR-FRET 1 mM ATP), GMean, IC50, 1 mM ATP, geometric mean

Sequence of GSK3α (GST-full length GSK3α) (P49840 whole entry): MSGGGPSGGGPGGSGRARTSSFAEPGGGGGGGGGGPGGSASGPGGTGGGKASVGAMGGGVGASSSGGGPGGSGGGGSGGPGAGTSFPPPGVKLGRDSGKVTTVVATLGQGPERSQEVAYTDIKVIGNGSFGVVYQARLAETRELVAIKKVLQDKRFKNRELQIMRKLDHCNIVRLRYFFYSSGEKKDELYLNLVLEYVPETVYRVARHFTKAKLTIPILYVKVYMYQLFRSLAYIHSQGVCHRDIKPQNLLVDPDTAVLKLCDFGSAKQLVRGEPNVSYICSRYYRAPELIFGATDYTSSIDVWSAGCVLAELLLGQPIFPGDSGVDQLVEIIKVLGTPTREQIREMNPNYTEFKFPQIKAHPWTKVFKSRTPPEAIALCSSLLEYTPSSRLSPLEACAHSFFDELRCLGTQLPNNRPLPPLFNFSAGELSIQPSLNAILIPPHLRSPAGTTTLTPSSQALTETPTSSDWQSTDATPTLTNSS

Q: What does the source list for `CC[C@]1(c2cccc(N(C)c3cccc(OC)n3)c2)C2=C(CC(C)(C)CC2=O)Nc2n[nH]cc21` [Compound 932666]?
A: IC50 [1, 3]: ≤ 100 nM; IC50 [2, 4]: 100 to 1000 nM

Q: With `COC(=O)C1(c2ccccc2)CC2(C1)C1=C(CC(C)(C)CC1=O)Nc1n[nH]cc12` (stereo not drawn) [Compound 942344] as the compound, how does the IC50 [1, 3] read?
A: ≤ 100 nM

Q: What about the IC50 [2, 4] of the same compound?
A: 100 to 1000 nM

Q: For `COC(=O)C1(c2ccccc2)CC2(C1)C1=C(CC(C)(C)CC1=O)Nc1n[nH]cc12` (stereo not drawn) [Compound 942366], which IC50 [1, 3] is on record?
A: ≤ 100 nM

Q: What about the IC50 [2, 4] of the same compound?
A: ≤ 100 nM

Q: Which results are given for `CC1(C)CC(=O)C2=C(C1)Nc1n[nH]cc1[C@]21CCN(S(C)(=O)=O)C1` [Compound 942432]?
A: IC50 [1, 3]: ≤ 100 nM; IC50 [2, 4]: ≤ 100 nM

Q: What does the source list for `CC1(C)CC(=O)C2=C(C1)Nc1n[nH]cc1[C@@]21CCN(S(C)(=O)=O)C1` [Compound 942462]?
A: IC50 [1, 3]: ≤ 100 nM; IC50 [2, 4]: ≤ 100 nM

Q: With `CCC1(c2cccc(N(C)c3nccc(C)n3)c2)C2=C(CC(C)(C)CC2=O)Nc2n[nH]cc21` (stereo not drawn) [Compound 942642] as the compound, how does the IC50 [1, 3] read?
A: ≤ 100 nM

Q: And the IC50 [1, 5]?
A: ≤ 100 nM

Q: And the IC50 [2, 4]?
A: ≤ 100 nM

Q: And the IC50 [2, 6]?
A: 1000 to 5000 nM

Q: Which IC50 [1, 7] does the source give for `CCC1(c2cccc(-c3cc(C)nn3C)c2)C2=C(CC(C)(C)NC2=O)Nc2[nH]ncc21` (stereo not drawn) [Compound 943371] here?
A: ≤ 100 nM

Q: And the IC50 [2, 8]?
A: 1000 to 5000 nM

Q: `CC1(C)CC(=O)C2=C(C1)Nc1n[nH]cc1[C@]21CCN(S(=O)(=O)CC2CC2)C1` [Compound 943481] was tested. Which IC50 [1, 3] did it give?
A: ≤ 100 nM

Q: What about the IC50 [1, 9] of the same compound?
A: 100 to 1000 nM

Q: And the IC50 [2, 4]?
A: ≤ 100 nM

Q: And the IC50 [2, 6]?
A: 100 to 1000 nM

Q: What does the source list for `CC1(C)CC(=O)C2=C(C1)Nc1n[nH]cc1[C@]21CCN(S(=O)(=O)C2CCCC2)C1` [Compound 943482]?
A: IC50 [1, 3]: ≤ 100 nM; IC50 [1, 9]: 100 to 1000 nM; IC50 [2, 4]: ≤ 100 nM; IC50 [2, 10]: 100 to 1000 nM

Q: Which IC50 [1, 3] does the source give for `Cn1cc(S(=O)(=O)N2CC[C@]3(C2)C2=C(CC(C)(C)CC2=O)Nc2n[nH]cc23)cn1` [Compound 943483] here?
A: ≤ 100 nM

Q: And the IC50 [2, 4]?
A: ≤ 100 nM

Q: `Cn1ccc(S(=O)(=O)N2CC[C@]3(C2)C2=C(CC(C)(C)CC2=O)Nc2n[nH]cc23)n1` [Compound 943484] was tested. Which IC50 [1, 3] did it give?
A: ≤ 100 nM

Q: What about the IC50 [1, 9] of the same compound?
A: 100 to 1000 nM

Q: What about the IC50 [2, 4] of the same compound?
A: ≤ 100 nM

Q: And the IC50 [2, 10]?
A: 1000 to 5000 nM

Q: What does the source list for `CC1(C)CC(=O)C2=C(C1)Nc1n[nH]cc1[C@]21CCN(S(=O)(=O)c2ccccc2)C1` [Compound 943485]?
A: IC50 [1, 3]: ≤ 100 nM; IC50 [1, 9]: 100 to 1000 nM; IC50 [2, 4]: ≤ 100 nM; IC50 [2, 10]: 1000 to 5000 nM

Q: How did the IC50 [1, 3] turn out when `COc1cccc(S(=O)(=O)N2CC[C@]3(C2)C2=C(CC(C)(C)CC2=O)Nc2n[nH]cc23)c1` [Compound 943486] was run?
A: ≤ 100 nM

Q: And the IC50 [2, 4]?
A: ≤ 100 nM

Q: `CC1(C)CC(=O)C2=C(C1)Nc1n[nH]cc1[C@]21CCN(S(=O)(=O)c2ccccc2F)C1` [Compound 943487] was tested. Which IC50 [1, 7] did it give?
A: ≤ 100 nM

Q: What about the IC50 [1, 9] of the same compound?
A: ≤ 100 nM

Q: What about the IC50 [2, 8] of the same compound?
A: ≤ 100 nM

Q: What about the IC50 [2, 10] of the same compound?
A: 100 to 1000 nM

Q: `CC1(C)CC(=O)C2=C(C1)Nc1n[nH]cc1[C@]21CCN(S(=O)(=O)c2cccc(F)c2)C1` [Compound 943488] was tested. Which IC50 [1, 3] did it give?
A: ≤ 100 nM

Q: What about the IC50 [2, 4] of the same compound?
A: ≤ 100 nM

Q: For `Cc1cccc(S(=O)(=O)N2CC[C@]3(C2)C2=C(CC(C)(C)CC2=O)Nc2n[nH]cc23)c1` [Compound 943489], which IC50 [1, 3] is on record?
A: ≤ 100 nM

Q: And the IC50 [2, 4]?
A: ≤ 100 nM

Q: Which IC50 [1, 3] does the source give for `CCC1(c2cccc(N(C)c3ccnnc3)c2)C2=C(CC(C)(C)CC2=O)Nc2n[nH]cc21` (stereo not drawn) [Compound 943492] here?
A: ≤ 100 nM

Q: What about the IC50 [2, 4] of the same compound?
A: ≤ 100 nM

Q: For `CCC1(c2cccc(-c3cnnc(C)c3)c2)C2=C(CC(C)(C)NC2=O)Nc2n[nH]cc21` (stereo not drawn) [Compound 943496], which IC50 [1, 7] is on record?
A: ≤ 100 nM

Q: What about the IC50 [2, 8] of the same compound?
A: 1000 to 5000 nM

Q: With `CC[C@]1(c2cccc(-c3cc(C)ncc3C)c2)C2=C(CC(C)(C)CC2=O)Nc2n[nH]cc21` [Compound 943515] as the compound, how does the IC50 [1, 3] read?
A: 1000 to 5000 nM

Q: And the IC50 [2, 4]?
A: > 5000 nM

Q: Which results are given for `CCC1(c2cccc(-c3ccnc(C)c3C)c2)C2=C(CC(C)(C)CC2=O)Nc2n[nH]cc21` (stereo not drawn) [Compound 943516]?
A: IC50 [1, 3]: ≤ 100 nM; IC50 [1, 5]: ≤ 100 nM; IC50 [2, 4]: ≤ 100 nM; IC50 [2, 6]: 1000 to 5000 nM

Q: Which results are given for `CCC1(c2cccc(-c3ccnc(C)c3C)c2)C2=C(CC(C)(C)CC2=O)Nc2n[nH]cc21` (stereo not drawn) [Compound 943517]?
A: IC50 [1, 3]: 100 to 1000 nM; IC50 [2, 4]: > 5000 nM

Q: How did the IC50 [1, 3] turn out when `CCC1(c2cccc(-c3ccncc3F)c2)C2=C(CC(C)(C)CC2=O)Nc2n[nH]cc21` (stereo not drawn) [Compound 943518] was run?
A: ≤ 100 nM

Q: And the IC50 [1, 5]?
A: ≤ 100 nM

Q: And the IC50 [2, 4]?
A: ≤ 100 nM

Q: What about the IC50 [2, 6] of the same compound?
A: 100 to 1000 nM
